The test system of assay [1] is HIV-1. Kind of assay: Antiviral EC50 in HIV-infected T-cell lines (CPE inhibition / susceptibility assays). The class given is cell-based. Here is the method: T-cell lines, CEM-SS, and MT-2, and viruses HIV-1 RF and HIV-1 NL4-3 (pNL4-3) were obtained from the National Institutes of Health (AIDS Research and Reference Reagent Program, Bethesda, MD).
The ability of compounds to protect cells against HIV infection was measured by the […] dye reduction method, essentially as described (See Pauwels, R. Balzarini, J. Baba, M. Snoeck, R. Schols, D. Herdewijn, P. Desmyter, J. and De Clercq, E. 1988, “Rapid and automated tetrazolium-based colorimetric assay for the detection of anti-HIV compounds,”. J Virol. Methods., 20: 309-321 and Weislow, O. S. Kiser, R. Fine, D. L. Bader, J. Shoemaker, R. H. and Boyd, M. R. 1989. “New soluble-formazan assay for HIV-1 cytopathic effects: application to high-flux screening of synthetic and natural products for AIDS-antiviral activity”. J. Natl. Cancer Inst. 81:577-586). Subject cells were infected with test virus at an moi of 0.025 to 0.819 or mock infected with medium only and added at 2×10^4 cells per well into 96 well plates containing half-log dilutions of test compounds. Six days later, 50 μl of XTT (1 mg/ml XTT tetrazolium, […] phenazine methosulfate) was added to the wells and the plate was reincubated for four hours. Viability, as determined by the amount of XTT formazan produced, was quantified spectrophotometrically by absorbance at 450 nm. Data from CPE assays were expressed as the percent of formazan produced in compound-treated cells compared to formazan produced in wells of uninfected, compound-free cells. The fifty percent effective concentration (EC50) was calculated as the concentration of compound that effected an increase in the percentage of formazan production in infected, compound-treated cells to 50% of that produced by uninfected, compound-free cells. The 50% cytotoxicity concentration (CC50) was calculated as the concentration of compound that decreased the percentage of formazan produced in uninfected, compound-treated cells to 50% of that produced in uninfected, compound-free cells. The therapeutic index was calculated by dividing the cytotoxicity (CC50) by the antiviral activity (EC50).
Compounds were tested in phenotypic susceptibility assays at Virologic, Inc., (See Petropoulos C. J., Parkin N. T., Limoli K. L., Lie Y. S., Wrin T., Huang W., Tian H., Smith D., Winslow G. A., Capon D J, Whitcomb J M. 2000, “A novel phenotypic drug susceptibility assay for human immunodeficiency virus type 1,” Antimicrob Agents Chemother 44(4):920-928) or using the assay described here. MT-2 cells were infected with either HIV-1 NL4-3 or HIV-1 NL4-3(I84V/L90M) and incubated in the presence of serial 0.5 log dilutions of test compounds. Three days later, culture supernatants were collected and virus production, as determined by p24 ELISA, was assayed. Percent inhibition was calculated as p24 concentration in compound-treated samples as compared to infected, compound-free controls. Inhibition of viral replication is determined by measuring reduction in HIV p24 present in the culture supernatant, using a Beckman-Coulter p24 HIV-1 Ag EIA kit and following the supplied protocol. Absorbance is read on a MRX microplate reader (Dynex Technologies). The EC50 was calculated as the concentration of compound that effected a decrease in the p24 production by infected, compound-treated cells to 50% of that produced by infected, compound-free cells.

Assay [2] has as its target T1, HIV-1 protease (Human immunodeficiency virus type 1 group M subtype B, UniProt P04585, Q495S).
T1 construct: made in house
Description: HIV-1 Protease RET assay (Ki, resonance energy transfer). It is filed as biochemical. The note with it: Q7S mutant HIV-1 protease. As to the method:
Ki's for the inhibitors of HIV-1 protease were determined using a resonance energy transfer (RET) assay. […] This enzyme is first partially purified as inclusion bodies from cell lysate. It is then solublized in 8M urea and passed through a Q-Sepharose column (Pharmacia) for further purification. To refold this protein, samples containing Q7S is dialyzed into 50 mM sodium phosphate pH 7.0, 50 mM NaCl, 10 mM DTT, and 10% glycerol.
The commercially available peptide substrate (Molecular Probes Cat. # H-2930) RE(EDANS)SQNYPIVQK(DABCYL)R is used to assess activity and Ki's. This peptide is cleaved quantitatively by HIV-1 Pr at the Tyr-Pro bond. The EDANS fluorophore absorbs at 340 nm and emits at 490 nm. The reaction is carried out in a 96 well plate in a total volume of 100 µL and is run for 12 minutes at 37C under steady-state conditions with 5 µM substrate and 2 nM active dimer enzyme concentration. The literature value Km for this substrate and enzyme is 103+/−8 μM (See Matayoshi, et al., “Novel Fluorogenic Substrates for Assaying Retroviral Proteases by Resonance Energy Transfer,” Science 247, 954 (1990)). The buffer for this reaction is 0.1M sodium acetate pH 4.8, 1M NaCl, 1 mM EDTA, 5 mM dithiothreitol, 10% dimethyl sulfoxide and 1 mg/ml bovine serum albumin. Inhibition curves are fit using the Morrison tight binding equation.

The mark [3] stands for this setting: Human immunodeficiency virus 1, T-cell, read-out: EC50 (wt) (nm), wt virus.
The mark [4] stands for this setting: Human immunodeficiency virus 1, T-cell, read-out: Ave. EC50, average, unit inferred.

Drawing on patent US20050124683A1, “HIV protease inhibitors, compositions containing the same, their pharmaceutical uses and materials for their synthesis” (priority 2003, published 2005), this text covers EC50 and Ki for 23 compounds.

SMILES strings stand for the structures. pEC50, pKi: −log10 of the molar value. Read-outs that look alike come from different tables or passages of the source.

With `CCCNC(=O)C1N(C(=O)[C@@H](O)[C@H](Cc2ccccc2)NC(=O)c2cc(C)cc(O)c2C)CC(F)(F)C1(C)C` (stereo partly shown), the pEC50 in assay [1] (setting [3]) was 8.05. For the same compound, the pKi in assay [2] (read-out: Ki (nm)) is over 10.00.

Consider `Cc1cnccc1CNC(=O)C1N(C(=O)[C@@H](O)[C@H](Cc2ccccc2)NC(=O)c2cccc(O)c2C)CC(F)(F)C1(C)C` (stereo partly shown), for which the pEC50 in assay [1] (setting [3]) was 8.10. Besides, the pKi in assay [2] (read-out: Ki (nm)) is over 10.00.

On to `COC1CN(C(=O)[C@@H](O)[C@H](Cc2ccccc2)NC(=O)c2cccc(O)c2C)[C@H](C(=O)NCc2ccccc2F)C1(C)C` (stereo partly shown), for which, in assay [1] (setting [3]), the negative logarithm of the EC50 (pEC50) was 6.00. For the same compound, the pKi in assay [2] (read-out: Ki (nm)) is 9.47.

`Cc1cc(O)c(C)c(C(=O)N[C@@H](Cc2ccccc2)[C@H](O)C(=O)N2CC(C)(O)C(C)(C)[C@H]2C(=O)NCc2ccccc2C)c1` (stereo partly shown): in assay [1] (setting [3]), the negative logarithm of the EC50 (pEC50) is 7.92. Further, in assay [2] (read-out: Ki (nm)), the negative logarithm of the Ki (pKi) was over 10.00.

Consider `Cc1ccccc1CNC(=O)[C@H]1N(C(=O)[C@@H](O)[C@H](Cc2ccccc2)NC(=O)c2cccc(O)c2C)CC(C)(O)C1(C)C` (stereo partly shown), for which the pEC50 in assay [1] (setting [3]) was 7.48. Also, in assay [2] (read-out: Ki (nm)), the negative-log Ki (pKi) was over 10.00.

For the compound `Cc1c(O)cccc1C(=O)N[C@@H](Cc1ccccc1)[C@H](O)C(=O)N1COC(C)(C)[C@H]1C(=O)NC1CCc2ccccc21` (stereo partly shown), the pEC50 in assay [1] (setting [3]) is 7.48. The pKi in assay [2] (read-out: Ki (nm)) is over 10.00.

For the compound `Cc1cc(O)c(C)c(C(=O)N[C@@H](Cc2ccccc2)[C@H](O)C(=O)N2COC(C)(C)[C@H]2C(=O)NC2CCc3ccccc32)c1` (stereo partly shown), the pEC50 in assay [1] (setting [3]) was 7.21. The pKi in assay [2] (read-out: Ki (nm)) is over 10.00.

Turning to `CCCCNC(=O)[C@H]1N(C(=O)[C@@H](O)[C@H](Cc2ccccc2)NC(=O)c2cc(C)cc(O)c2C)CC(F)(F)C1(C)C`, in assay [1] (setting [3]), the negative-log EC50 (pEC50) was 7.64. Moreover, the negative logarithm of the Ki (pKi) in assay [2] (read-out: Ki (nm)) was over 10.00.

`Cc1cc(O)c(C)c(C(=O)N[C@@H](Cc2ccccc2)[C@H](O)C(=O)N2CC(F)(F)C(C)(C)[C@H]2C(=O)NCc2ccncc2C)c1`: in assay [1] (setting [3]), the negative-log EC50 (pEC50) is 7.47. Also, in assay [2] (read-out: Ki (nm)), the negative-log Ki (pKi) was over 10.00.

With `Cc1cc(O)c(C)c(C(=O)N[C@@H](Cc2ccccc2)[C@H](O)C(=O)N2CC(F)(F)C(C)(C)[C@H]2C(=O)NCc2ccccn2)c1`, the negative logarithm of the EC50 (pEC50) in assay [1] (setting [3]) was 7.21. Further, the negative-log Ki (pKi) in assay [2] (read-out: Ki (nm)) was over 10.00.

In the case of `CC[C@H](C)CNC(=O)[C@H]1N(C(=O)[C@@H](O)[C@H](Cc2ccccc2)NC(=O)c2cc(C)cc(O)c2C)CC(F)(F)C1(C)C`, the negative logarithm of the EC50 (pEC50) in assay [1] (setting [3]) is 8.12. In addition, the pKi in assay [2] (read-out: Ki (nm)) is over 10.00.

Turning to `C=CCNC(=O)C1N(C(=O)[C@@H](O)[C@H](Cc2cccc(F)c2)NC(=O)c2cccc(O)c2C)CC(F)(F)C1(C)C` (stereo partly drawn) [Example D10, (R)-3-((2S,3R)-4,4-Difluoro-1-[4-(3-fluoro-phenyl)-2-hydroxy-3-(3-hydroxy-2-methyl-benzoylamino)-butyryl])-3,3-dimethyl-pyrrolidine-2-carboxylic acid allylamide], the pEC50 in assay [1] (setting [4]) was 7.80. In assay [2] (average, read-out: Ave. Ki), the pKi was over 10.00.

In the case of `Cc1c(O)cccc1C(=O)N[C@@H](Cc1cccc(F)c1)[C@H](O)C(=O)N1CC(F)(F)C(C)(C)[C@H]1C(=O)NCC(C)C` [Example D11, (S)-4,4-Difluoro-1-[(2S,3S)-4-(3-fluoro-phenyl)-2-hydroxy-3-(3-hydroxy-2-methyl-benzoylamino)-butyryl]-3,3-dimethyl-pyrrolidine-2-carboxylic acid isobutyl-amide], in assay [1] (setting [4]), the pEC50 is 7.89. For the same compound, the negative logarithm of the Ki (pKi) in assay [2] (average, read-out: Ave. Ki) is over 10.00.

As to `C=CCNC(=O)[C@H]1N(C(=O)[C@@H](O)[C@H](Cc2ccccc2)NC(=O)c2cc(C)cc(O)c2C)CSC1(C)C` [Example D12, (R)-3-[(2S,3S)-2-Hydroxy-3-(3-hydroxy-2,5-dimethyl-benzoylamino)-4-phenyl-butyryl]-5,5-dimethyl-thiazolidine-4-carboxylic acid allylamide], the negative-log EC50 (pEC50) in assay [1] (setting [4]) was 7.80. In addition, in assay [2] (average, read-out: Ave. Ki), the pKi was 9.15.

With `C=CCNC(=O)[C@H]1N(C(=O)[C@@H](O)[C@H](Cc2ccccc2)NC(=O)c2cc(C)cc(O)c2C)CC(F)(F)C1(C)C` [Example D13, (S)-4,4-Difluoro-1-[(2S,3S)-2-hydroxy-3-(3-hydroxy-2,5-dimethyl-benzoylamino)-4-phenyl-butyryl]-3,3-dimethyl-pyrrolidine-2-carboxylic acid allylamide], the negative-log EC50 (pEC50) in assay [1] (setting [4]) was 7.77. Further, the negative logarithm of the Ki (pKi) in assay [2] (average, read-out: Ave. Ki) was over 10.00.

As to `Cc1cc(O)c(C)c(C(=O)N[C@@H](Cc2ccccc2)[C@H](O)C(=O)N2CC(F)(F)C(C)(C)[C@H]2C(=O)NCC(F)(F)F)c1` [Example D16, (S)-4,4-Difluoro-1-[(2S,3S)-2-hydroxy-3-(3-hydroxy-2,5-dimethyl-benzoylamino)-4-phenyl-butyryl]-3,3-dimethyl-pyrrolidine-2-carboxylic acid (2,2,2-trifluoro-ethyl)-amide], the pEC50 in assay [1] (setting [4]) is 7.74. In assay [2] (average, read-out: Ave. Ki), the pKi is over 10.00.

`CCNC(=O)[C@H]1N(C(=O)[C@@H](O)[C@H](Cc2ccccc2)NC(=O)c2cc(C)cc(O)c2C)CC(F)(F)C1(C)C` [Example D17, (S)-4,4-Difluoro-1-[(2S,3S)-2-hydroxy-3-(3-hydroxy-2,5-dimethyl-benzoylamino)-4-phenyl-butyryl]-3,3-dimethyl-pyrrolidine-2-carboxylic acid ethylamide]: the pEC50 in assay [1] (setting [4]) was 7.18. Besides, the pKi in assay [2] (average, read-out: Ave. Ki) was over 10.00.

As for `CC[C@H](C)CNC(=O)[C@H]1N(C(=O)[C@@H](O)[C@H](Cc2ccccc2)NC(=O)c2cccc(O)c2C)CC(F)(F)C1(C)C` [Example D18, (S)-4,4-Difluoro-1-[(2S,3S)-2-hydroxy-3-(3-hydroxy-2-methyl-benzoylamino)-4-phenyl-butyryl]-3,3-dimethyl-pyrrolidine-2-carboxylic acid ((2S)-2-methyl-butyl)-amide], the pEC50 in assay [1] (setting [4]) is 8.00. The negative-log Ki (pKi) in assay [2] (average, read-out: Ave. Ki) is over 10.00.

With `C=CCNC(=O)C1N(C(=O)[C@@H](O)[C@H](Cc2cccc(F)c2)NC(=O)c2cccc(O)c2C)CC(F)(F)C1(C)C` (stereo partly shown) [drawing 101], the pEC50 in assay [1] (setting [3]) was 7.80. Also, the pKi in assay [2] (read-out: Ki (nm)) is over 10.00.

For `Cc1cc(O)c(C)c(C(=O)N[C@@H](Cc2ccccc2)[C@H](O)C(=O)N2CC(F)(F)C(C)(C)[C@H]2C(=O)NCC(F)(F)F)c1` [drawing 119], the negative-log EC50 (pEC50) in assay [1] (setting [3]) is 7.74. Further, the negative logarithm of the Ki (pKi) in assay [2] (read-out: Ki (nm)) was over 10.00.

For the compound `Cc1c(O)cccc1C(=O)N[C@@H](Cc1cccc(F)c1)[C@H](O)C(=O)N1CC(F)(F)C(C)(C)[C@H]1C(=O)NCC(C)(C)C` [drawing 136], the pEC50 in assay [1] (setting [3]) was 7.89. In assay [2] (read-out: Ki (nm)), the pKi is over 10.00.

On to `Cc1c(O)cccc1C(=O)N[C@@H](Cc1cccc(F)c1)[C@H](O)C(=O)N1CC(F)(F)C(C)(C)[C@H]1C(=O)NCC(C)(C)C` [drawing 137], for which the pEC50 in assay [1] (read-out: EC50 (wt) (nm), wt virus) is 8.06. Also, in assay [2] (read-out: Ki (nm)), the negative-log Ki (pKi) was over 10.00.

Turning to `CCNC(=O)[C@H]1N(C(=O)[C@@H](O)[C@H](Cc2ccccc2)NC(=O)c2cc(C)cc(O)c2C)CC(F)(F)C1(C)C` [drawing 141], the pEC50 in assay [1] (setting [3]) is 7.43. Moreover, the negative logarithm of the Ki (pKi) in assay [2] (read-out: Ki (nm)) is over 10.00.
